Measurements: ChEMBL document CHEMBL1671847, “Hybrid dual aromatase-steroid sulfatase inhibitors with exquisite picomolar inhibitory activity” (ACS Med Chem Lett, 2011)

Biological target: T1, Aromatase (Homo sapiens, UniProt P11511)
T1 sequence (P11511 whole entry): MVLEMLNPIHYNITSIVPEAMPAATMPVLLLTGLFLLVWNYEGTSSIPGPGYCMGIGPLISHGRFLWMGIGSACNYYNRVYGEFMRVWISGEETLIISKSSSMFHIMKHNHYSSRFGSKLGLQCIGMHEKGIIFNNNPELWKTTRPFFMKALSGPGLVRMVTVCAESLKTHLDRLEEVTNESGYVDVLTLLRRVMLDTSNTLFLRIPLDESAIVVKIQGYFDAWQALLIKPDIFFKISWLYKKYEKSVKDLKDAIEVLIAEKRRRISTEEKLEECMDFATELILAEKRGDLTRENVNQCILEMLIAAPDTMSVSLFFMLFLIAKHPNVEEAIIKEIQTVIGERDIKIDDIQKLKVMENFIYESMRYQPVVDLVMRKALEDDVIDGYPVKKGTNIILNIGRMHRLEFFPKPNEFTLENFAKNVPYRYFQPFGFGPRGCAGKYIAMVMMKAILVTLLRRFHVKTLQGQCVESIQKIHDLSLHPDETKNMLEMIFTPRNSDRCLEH
Assay: Inhibition of aromatase in human JEG-3 cells using [1beta-3H]androstenedione after 1 hr by scintillation spectrometry
Assay type: cell-based

IC50: 0.21 nM
SMILES: N#Cc1ccc(N(Cc2ccc(OS(N)(=O)=O)cc2)n2cnnc2)cc1-c1ccccc1
